Experiments:
Mu-type opioid receptor [1] = molecular target: T1, Mu-type opioid receptor (Homo sapiens, UniProt P35372); assay: Compound was evaluated for its binding affinity by displacing DAMGO to human cloned mu opioid receptor transfected into CHO cells using [35S]GTP-gamma-S, assay; type: functional, cell-based
Mu-type opioid receptor [2] = molecular target: T1, Mu-type opioid receptor; assay: Compound was evaluated for its binding affinity against CHO cells transfected with cloned human Opioid receptor mu 1 by displacing [3H]DAMGO; type: cell-based
[3] = molecular target: T2, Delta-type opioid receptor (Homo sapiens, UniProt P41143); assay: Compound was evaluated for functional opioid activity by stimulation of [35S]GTP-gamma-S, in cloned human Opioid receptor delta 1 transfected into CHO cells; type: cell-based
T2 sequence (P41143 whole entry): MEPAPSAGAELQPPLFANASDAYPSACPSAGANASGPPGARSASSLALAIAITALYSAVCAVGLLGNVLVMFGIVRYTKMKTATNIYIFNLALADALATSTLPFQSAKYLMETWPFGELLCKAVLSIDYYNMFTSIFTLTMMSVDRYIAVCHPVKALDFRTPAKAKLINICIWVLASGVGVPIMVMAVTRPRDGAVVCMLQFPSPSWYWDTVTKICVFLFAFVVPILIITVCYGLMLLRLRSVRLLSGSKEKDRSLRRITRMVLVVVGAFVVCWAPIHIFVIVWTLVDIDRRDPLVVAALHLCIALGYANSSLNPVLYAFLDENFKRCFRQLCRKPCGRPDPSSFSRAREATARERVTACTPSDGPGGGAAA

[4] = molecular target: T3, Kappa-type opioid receptor (Homo sapiens, UniProt P41145); assay: Compound was evaluated for its binding affinity to CHO cells expressing cloned human Opioid receptor kappa 1 by displacing [3H]U-69593; type: cell-based
T3 sequence (P41145 whole entry): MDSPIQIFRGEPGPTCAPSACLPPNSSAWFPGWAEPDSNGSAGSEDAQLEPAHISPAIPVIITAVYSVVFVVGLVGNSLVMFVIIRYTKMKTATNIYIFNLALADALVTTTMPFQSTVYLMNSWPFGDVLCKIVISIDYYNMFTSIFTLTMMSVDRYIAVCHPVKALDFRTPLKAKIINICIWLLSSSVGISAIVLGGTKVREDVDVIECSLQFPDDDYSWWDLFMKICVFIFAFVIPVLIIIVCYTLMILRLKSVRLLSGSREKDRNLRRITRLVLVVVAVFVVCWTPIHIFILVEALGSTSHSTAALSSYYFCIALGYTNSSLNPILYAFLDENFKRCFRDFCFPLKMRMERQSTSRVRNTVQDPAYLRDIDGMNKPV

[5] = molecular target: T3, Kappa-type opioid receptor; assay: Compound was evaluated for its binding affinity by displacing [3H]U-69593 to human cloned Kappa opioid receptor transfected into CHO cells using [35S]GTP-gamma-S, assay; type: functional, cell-based
[6] = molecular target: T2, Delta-type opioid receptor; assay: Compound was evaluated for its binding affinity to CHO cells expressing cloned human Opioid receptor delta 1 by displacement of [3H]Cl-DPDPE; type: cell-based
[7] = molecular target: T2, Delta-type opioid receptor; assay: Compound was evaluated for its binding affinity to CHO cells expressing cloned human Opioid receptor delta 1 by displacement of [3H]-Cl-DPDPE; type: cell-based
Mu-type opioid receptor [8] = molecular target: Mu-type opioid receptor (Cavia porcellus, UniProt P97266); assay: Compound was evaluated for its binding affinity against Opioid receptor mu 1 of guinea pig brain membrane by displacing [3H]DAMGO
Sequence of Mu-type opioid receptor (Cavia porcellus, UniProt P97266) (P97266 whole entry): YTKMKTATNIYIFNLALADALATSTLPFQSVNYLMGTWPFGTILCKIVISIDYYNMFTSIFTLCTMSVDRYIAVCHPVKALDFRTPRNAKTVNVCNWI

T1 sequence (P35372 whole entry): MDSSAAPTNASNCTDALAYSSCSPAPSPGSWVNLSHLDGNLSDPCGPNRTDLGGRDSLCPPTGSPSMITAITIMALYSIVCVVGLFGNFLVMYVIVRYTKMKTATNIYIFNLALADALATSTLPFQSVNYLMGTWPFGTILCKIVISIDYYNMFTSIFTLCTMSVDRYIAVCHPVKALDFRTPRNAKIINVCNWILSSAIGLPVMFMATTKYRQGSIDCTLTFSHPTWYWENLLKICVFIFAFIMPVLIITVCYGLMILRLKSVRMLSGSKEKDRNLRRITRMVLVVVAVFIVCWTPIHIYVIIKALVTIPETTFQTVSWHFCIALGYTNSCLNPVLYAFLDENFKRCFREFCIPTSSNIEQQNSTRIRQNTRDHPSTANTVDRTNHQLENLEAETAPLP

| Compound | Ki (Mu-type opioid receptor [1]) [nM] | Ki (Mu-type opioid receptor [2]) [nM] | Ki [3] [nM] | Ki [4] [nM] | Ki [5] [nM] | Ki [6] [nM] | Ki [7] [nM] | Ki (Mu-type opioid receptor [8]) [nM] |
| --- | --- | --- | --- | --- | --- | --- | --- | --- |
| NCCc1ccc2[nH]c3c(c2c1)C[C@@]1(O)C2Cc4ccc(O)c5c4C1(CCN2CC1CC1)C3O5 (some centres undefined) | 17.4 | 29.6 | 3.79 | 1.08 | 0.12 | 28.2 | – | – |
| CCCCC(=N)NCc1ccc2[nH]c3c(c2c1)C[C@@]1(O)C2Cc4ccc(O)c5c4C1(CCN2CC1CC1)C3O5 (some centres undefined) | – | – | – | – | – | – | 5.5 | 3.5 |
| CCCCC(=N)NCCc1ccc2[nH]c3c(c2c1)C[C@@]1(O)C2Cc4ccc(O)c5c4C1(CCN2CC1CC1)C3O5 (some centres undefined) | 5.33 | 219 | 3.31 | 0.3 | 0.17 | 38.2 | – | – |
